Drawing on the NIST ThermoML archive (doi:10.1016/j.jct.2015.07.042), this text covers activity coefficient for 15 molecules.

Structures are written as SMILES. Numbers after ± are expanded uncertainties.

A short description of the data set: activity coefficient (dimensionless); of the first substance listed, at infinite dilution; xn = mol fraction of the nth substance listed. The conditions noted are these: 101 kPa, Liquid, Chromatography, x1 = 0.

As to `Cc1ccccc1C` [1,2-dimethylbenzene] + CCCCn1cc[n+](C)c1.COP(=O)([O-])OC, the activity coefficient runs as follows: (358.15 K) 5.54 ± 0.38; (368.15 K) 5.7 ± 0.39; (378.15 K) 5.79 ± 0.39; (388.15 K) 6.03 ± 0.41.

Take `Cc1ccccc1C` [1,2-dimethylbenzene] + CCCCn1cc[n+](C)c1.CS(=O)(=O)[O-]: the activity coefficient reads like this: (358.15 K) 7.64 ± 0.52; (368.15 K) 7.79 ± 0.53; (378.15 K) 7.99 ± 0.54; (388.15 K) 8.21 ± 0.56.

As to `Cc1ccccc1C` [1,2-dimethylbenzene] + CCCCn1cc[n+](C)c1.[Cl-], the activity coefficient came out at 11.6 ± 0.79 (358.15 K), 11.7 ± 0.8 (368.15 K), 11.9 ± 0.81 (378.15 K) and 12.3 ± 0.84 (388.15 K).

As for `Cc1cccc(C)c1` [1,3-dimethylbenzene] + CCCCn1cc[n+](C)c1.COP(=O)([O-])OC, the activity coefficient turned out to be 6.49 ± 0.44 (358.15 K), 6.6 ± 0.45 (368.15 K), 6.73 ± 0.46 (378.15 K) and 7 ± 0.48 (388.15 K).

Take `Cc1cccc(C)c1` [1,3-dimethylbenzene] + CCCCn1cc[n+](C)c1.CS(=O)(=O)[O-]: the activity coefficient (358.15 K) is 9.27 ± 0.63, the activity coefficient (368.15 K) worked out at 9.43 ± 0.64, the activity coefficient (378.15 K) was determined as 9.57 ± 0.65 and the activity coefficient (388.15 K) amounted to 9.92 ± 0.68.

`Cc1cccc(C)c1` [1,3-dimethylbenzene] + CCCCn1cc[n+](C)c1.[Cl-]: the activity coefficient turned out to be 14.3 ± 0.98 (358.15 K), 14.5 ± 0.99 (368.15 K), 14.7 ± 1 (378.15 K) and 15 ± 1 (388.15 K).

Take `Cc1ccc(C)cc1` [1,4-dimethylbenzene] + CCCCn1cc[n+](C)c1.COP(=O)([O-])OC: the activity coefficient by setting is: (358.15 K) 6.31 ± 0.43; (368.15 K) 6.44 ± 0.44; (378.15 K) 6.59 ± 0.45; (388.15 K) 6.86 ± 0.47.

As for `Cc1ccc(C)cc1` [1,4-dimethylbenzene] + CCCCn1cc[n+](C)c1.CS(=O)(=O)[O-], the activity coefficient runs as follows: (358.15 K) 9.03 ± 0.62; (368.15 K) 9.2 ± 0.63; (378.15 K) 9.37 ± 0.64; (388.15 K) 9.71 ± 0.66.

As to `Cc1ccc(C)cc1` [1,4-dimethylbenzene] + CCCCn1cc[n+](C)c1.[Cl-], the activity coefficient came out at 13.6 ± 0.93 (358.15 K), 13.7 ± 0.94 (368.15 K), 14 ± 0.96 (378.15 K) and 14.3 ± 0.98 (388.15 K).

Turning to `C1COCCO1` [1,4-dioxane] + CCCCn1cc[n+](C)c1.COP(=O)([O-])OC, the activity coefficient (358.15 K) worked out at 2.13 ± 0.14, the activity coefficient (368.15 K) came to 2.19 ± 0.15, the activity coefficient (378.15 K) is 2.25 ± 0.15 and the activity coefficient (388.15 K) amounted to 2.37 ± 0.16.

In the case of `C1COCCO1` [1,4-dioxane] + CCCCn1cc[n+](C)c1.CS(=O)(=O)[O-], the activity coefficient runs as follows: (358.15 K) 2.33 ± 0.16; (368.15 K) 2.41 ± 0.16; (378.15 K) 2.49 ± 0.17; (388.15 K) 2.62 ± 0.18.

In the case of `C1COCCO1` [1,4-dioxane] + CCCCn1cc[n+](C)c1.[Cl-], the activity coefficient stood at 3.47 ± 0.24 (358.15 K), 3.55 ± 0.24 (368.15 K), 3.65 ± 0.25 (378.15 K) and 3.74 ± 0.25 (388.15 K).

In the case of `C=CCCCCCCCC` [1-decene] + CCCCn1cc[n+](C)c1.COP(=O)([O-])OC, the activity coefficient is 53.5 ± 3.7 (358.15 K), 52.2 ± 3.6 (368.15 K), 50.4 ± 3.5 (378.15 K) and 49.2 ± 3.4 (388.15 K).

Take `C=CCCCCCCCC` [1-decene] + CCCCn1cc[n+](C)c1.CS(=O)(=O)[O-]: the activity coefficient is 193 ± 13 (358.15 K), 187 ± 13 (368.15 K), 182 ± 12 (378.15 K) and 179 ± 12 (388.15 K).

Turning to `C=CCCCCCCCC` [1-decene] + CCCCn1cc[n+](C)c1.[Cl-], the activity coefficient by setting is: (358.15 K) 323 ± 22; (368.15 K) 306 ± 21; (378.15 K) 285 ± 20; (388.15 K) 277 ± 19.
